Test results from patent US20260256792A1, “TREATMENT OF CHRONIC SPONTANEOUS URTICARIA BY ADMINISTERING (R)-2-[3-[4-AMINO-3-(2-FLUORO-4-PHENOXY-PHENYL)PYRAZOLO[3,4-D]PYRIMIDIN-1-YL]PIPERIDINE-1-CARBONYL]-4-METHYL-4-[4-(OXETAN-3-YL)PIPERAZIN-1-YL]PENT-2-ENENITRILE” (priority 2023, published 2026).

Test system: moderate-to-severe chronic spontaneous urticaria (CSU)
Test: Phase 2 CSU study: itch severity score over 7 days (ISS7)
Type: in vivo, human
Details: ITT
Description: The study comprises a 12 week, randomized, double-blind, placebo-controlled, multi-center, dose-ranging efficacy and safety phase, followed by a 40 week open label extension (OLE) phase (see FIG. 1). The study consists of three phases and an optional OLE phase. […] Clinically, CSU is characterized by the spontaneous and recurrent appearance of pruritic hives. The proposed primary endpoints were the UAS7 at Week 12 in EU and EU reference countries and the ISS7 in the US. Regardless of where a participant was from, all assessments were the same. The UAS7 score is a composite score containing both the HSS7 and the ISS7. This allowed a global assessment of the two key components of urticaria: hives and itch. […] The UAS is a validated PRO measure. […] The daily UAS scores range from 0 to 6 point/day. […] Patients were to complete the UAS using the e-diary. […] The following secondary endpoints were to be analyzed using the same approach as for the primary endpoint: • Change from baseline in UAS7 at Week 4 • Change from baseline in UAS7 at Week 12 (for US and US reference countries) • Change from baseline in ISS7 at Week 12 (except US and US reference countries) • Change from baseline in HSS7 at Week 12

What does the source list for `CC(C)(C=C(C#N)C(=O)N1CCC[C@@H](n2nc(-c3ccc(Oc4ccccc4)cc3F)c3c(N)ncnc32)C1)N1CCN(C2COC2)CC1` [rilzabrutinib, (R)-2-[3-[4-amino-3-(2-fluoro-4-phenoxy-phenyl)pyrazolo[3,4-d]pyrimidin-1-yl]piperidine-1-carbonyl]-4-methyl-4-[4-(oxetan-3-yl)piperazin-1-yl]pent-2-enenitrile]?
ISS7 Change difference for rilzabrutinib vs. placebo LS Mean (95% CI) (400 mg BID, Week 2): −2.27; ISS7 Change from baseline LS Mean (SE) (400 mg BID, Week 2): −5.68 (0.80); ISS7 Post-baseline Mean (SD) (400 mg BID, Week 2): 10.40 (5.75); ISS7 % Change difference for rilzabrutinib vs. placebo LS Mean (95% CI) (400 mg BID, Week 3): −18.44%; ISS7 % Change from baseline LS Mean (SE) (400 mg BID, Week 3): −40.88 (5.26) %; ISS7 Change difference for rilzabrutinib vs. placebo LS Mean (95% CI) (400 mg BID, Week 3): −2.60; ISS7 Change from baseline LS Mean (SE) (400 mg BID, Week 3): −6.68 (0.84); ISS7 Post-baseline Mean (SD) (400 mg BID, Week 3): 9.21 (6.17); ISS7 % Change difference for rilzabrutinib vs. placebo LS Mean (95% CI) (400 mg BID, Week 4): −18.54%; ISS7 % Change from baseline LS Mean (SE) (400 mg BID, Week 4): −44.30 (5.62) %; ISS7 Change difference for rilzabrutinib vs. placebo LS Mean (95% CI) (400 mg BID, Week 4): −2.62; ISS7 Change from baseline LS Mean (SE) (400 mg BID, Week 4): −7.24 (0.89); ISS7 Post-baseline Mean (SD) (400 mg BID, Week 4): 8.12 (6.28); ISS7 % Change difference for rilzabrutinib vs. placebo LS Mean (95% CI) (400 mg BID, Week 5): −9.84%; ISS7 % Change from baseline LS Mean (SE) (400 mg BID, Week 5): -43.1%; ISS7 Change difference for rilzabrutinib vs. placebo LS Mean (95% CI) (400 mg BID, Week 5): −1.32; ISS7 Change from baseline LS Mean (SE) (400 mg BID, Week 5): −6.89 (0.88); ISS7 Post-baseline Mean (SD) (400 mg BID, Week 5): 8.53 (6.95); ISS7 % Change difference for rilzabrutinib vs. placebo LS Mean (95% CI) (400 mg BID, Week 6): −13.75%; ISS7 % Change from baseline LS Mean (SE) (400 mg BID, Week 6): −42.18 (5.84) %; ISS7 Change difference for rilzabrutinib vs. placebo LS Mean (95% CI) (400 mg BID, Week 6): −1.99; ISS7 Change from baseline LS Mean (SE) (400 mg BID, Week 6): −6.87 (0.93); ISS7 Post-baseline Mean (SD) (400 mg BID, Week 6): 8.62 (6.58); ISS7 % Change difference for rilzabrutinib vs. placebo LS Mean (95% CI) (400 mg BID, Week 7): −18.93%; ISS7 % Change from baseline LS Mean (SE) (400 mg BID, Week 7): −47.79 (5.68) %; ISS7 Change difference for rilzabrutinib vs. placebo LS Mean (95% CI) (400 mg BID, Week 7): −2.77; ISS7 Change from baseline LS Mean (SE) (400 mg BID, Week 7): −7.77 (0.91); ISS7 Post-baseline Mean (SD) (400 mg BID, Week 7): 8.03 (6.39); ISS7 % Change difference for rilzabrutinib vs. placebo LS Mean (95% CI) (400 mg BID, Week 8): −20.00%; ISS7 % Change from baseline LS Mean (SE) (400 mg BID, Week 8): −52.80 (5.92) %; ISS7 Change difference for rilzabrutinib vs. placebo LS Mean (95% CI) (400 mg BID, Week 8): −2.86; ISS7 Change from baseline LS Mean (SE) (400 mg BID, Week 8): −8.47 (0.93); ISS7 Post-baseline Mean (SD) (400 mg BID, Week 8): 7.18 (6.69); ISS7 % Change difference for rilzabrutinib vs. placebo LS Mean (95% CI) (400 mg BID, Week 9): −20.94%; ISS7 % Change from baseline LS Mean (SE) (400 mg BID, Week 9): −51.80 (5.94) %; ISS7 Change difference for rilzabrutinib vs. placebo LS Mean (95% CI) (400 mg BID, Week 9): −2.77; ISS7 Change from baseline LS Mean (SE) (400 mg BID, Week 9): −8.27 (0.96); ISS7 Post-baseline Mean (SD) (400 mg BID, Week 9): 7.44 (7.20); ISS7 % Change difference for rilzabrutinib vs. placebo LS Mean (95% CI) (400 mg BID, Week 10): −10.95%; ISS7 % Change from baseline LS Mean (SE) (400 mg BID, Week 10): −48.75 (6.31) %; ISS7 Change difference for rilzabrutinib vs. placebo LS Mean (95% CI) (400 mg BID, Week 10): −1.72; ISS7 Change from baseline LS Mean (SE) (400 mg BID, Week 10): −8.01 (1.01); ISS7 Post-baseline Mean (SD) (400 mg BID, Week 10): 8.06 (7.29); ISS7 % Change difference for rilzabrutinib vs. placebo LS Mean (95% CI) (400 mg BID, Week 11): −15.82%; ISS7 % Change from baseline LS Mean (SE) (400 mg BID, Week 11): −49.45 (6.23) %; ISS7 Change difference for rilzabrutinib vs. placebo LS Mean (95% CI) (400 mg BID, Week 11): −2.07; ISS7 Change from baseline LS Mean (SE) (400 mg BID, Week 11): −7.93 (0.99); ISS7 Post-baseline Mean (SD) (400 mg BID, Week 11): 7.76 (7.01); ISS7 % Change difference for rilzabrutinib vs. placebo LS Mean (95% CI) (400 mg BID, Week 12): −13.69%; ISS7 % Change from baseline LS Mean (SE) (400 mg BID, Week 12): −50.27 (6.54) %; ISS7 Change difference for rilzabrutinib vs. placebo LS Mean (95% CI) (400 mg BID, Week 12): −1.75; ISS7 Change from baseline LS Mean (SE) (400 mg BID, Week 12): −8.06 (1.02); ISS7 Post-baseline Mean (SD) (400 mg BID, Week 12): 7.61 (7.18); ISS7 % Change difference for rilzabrutinib vs. placebo LS Mean (95% CI) (400 mg QPM, Week 1): −8.87%; ISS7 % Change from baseline LS Mean (SE) (400 mg QPM, Week 1): −19.33 (5.35) %; ISS7 Change difference for rilzabrutinib vs. placebo LS Mean (95% CI) (400 mg QPM, Week 1): −1.47; ISS7 Change from baseline LS Mean (SE) (400 mg QPM, Week 1): −3.47 (0.79); ISS7 Post-baseline Mean (SD) (400 mg QPM, Week 1): 13.08 (4.46); ISS7 % Change difference for rilzabrutinib vs. placebo LS Mean (95% CI) (400 mg QPM, Week 2): −5.64%; ISS7 % Change from baseline LS Mean (SE) (400 mg QPM, Week 2): −25.13 (5.32) %; ISS7 Change difference for rilzabrutinib vs. placebo LS Mean (95% CI) (400 mg QPM, Week 2): −0.86; ISS7 Change from baseline LS Mean (SE) (400 mg QPM, Week 2): −4.27 (0.81); ISS7 Post-baseline Mean (SD) (400 mg QPM, Week 2): 12.44 (4.70); ISS7 % Change difference for rilzabrutinib vs. placebo LS Mean (95% CI) (400 mg QPM, Week 3): −7.34%; ISS7 % Change from baseline LS Mean (SE) (400 mg QPM, Week 3): −29.78 (5.33) %; ISS7 Change difference for rilzabrutinib vs. placebo LS Mean (95% CI) (400 mg QPM, Week 3): −0.97; ISS7 Change from baseline LS Mean (SE) (400 mg QPM, Week 3): −5.06 (0.85); ISS7 % Change difference for rilzabrutinib vs. placebo LS Mean (95% CI) (400 mg QPM, Week 4): −5.09%; ISS7 % Change from baseline LS Mean (SE) (400 mg QPM, Week 4): −30.86 (5.64) %; ISS7 Change difference for rilzabrutinib vs. placebo LS Mean (95% CI) (400 mg QPM, Week 4): −0.67; ISS7 Change from baseline LS Mean (SE) (400 mg QPM, Week 4): −5.29 (0.90); ISS7 Post-baseline Mean (SD) (400 mg QPM, Week 4): 11.30 (4.76); ISS7 % Change difference for rilzabrutinib vs. placebo LS Mean (95% CI) (400 mg QPM, Week 5): 0.86%; ISS7 % Change from baseline LS Mean (SE) (400 mg QPM, Week 5): −32.42 (5.42) %; ISS7 Change difference for rilzabrutinib vs. placebo LS Mean (95% CI) (400 mg QPM, Week 5): 0.08; ISS7 Change from baseline LS Mean (SE) (400 mg QPM, Week 5): −5.48 (0.88); ISS7 Post-baseline Mean (SD) (400 mg QPM, Week 5): 11.00 (4.61); ISS7 % Change difference for rilzabrutinib vs. placebo LS Mean (95% CI) (400 mg QPM, Week 6): −8.64%; ISS7 % Change from baseline LS Mean (SE) (400 mg QPM, Week 6): −37.07 (5.96) %; ISS7 Change difference for rilzabrutinib vs. placebo LS Mean (95% CI) (400 mg QPM, Week 6): −1.39; ISS7 Change from baseline LS Mean (SE) (400 mg QPM, Week 6): −6.28 (0.95); ISS7 Post-baseline Mean (SD) (400 mg QPM, Week 6): 10.23 (5.19); ISS7 % Change difference for rilzabrutinib vs. placebo LS Mean (95% CI) (400 mg QPM, Week 7): −9.66%; ISS7 % Change from baseline LS Mean (SE) (400 mg QPM, Week 7): −38.52 (5.84) %; ISS7 Change difference for rilzabrutinib vs. placebo LS Mean (95% CI) (400 mg QPM, Week 7): −1.37; ISS7 Change from baseline LS Mean (SE) (400 mg QPM, Week 7): −6.37 (0.93); ISS7 Post-baseline Mean (SD) (400 mg QPM, Week 7): 10.60 (5.27); ISS7 % Change difference for rilzabrutinib vs. placebo LS Mean (95% CI) (400 mg QPM, Week 8): −5.60%; ISS7 % Change from baseline LS Mean (SE) (400 mg QPM, Week 8): −38.39 (6.03) %; ISS7 Change difference for rilzabrutinib vs. placebo LS Mean (95% CI) (400 mg QPM, Week 8): −0.61; ISS7 Change from baseline LS Mean (SE) (400 mg QPM, Week 8): −6.22 (0.96)
